These are literature values, as cited in US20170252373A1, “COMBINATION THERAPY FOR THE TREATMENT OF HAIR LOSS” (priority 2016, published 2017).

For this data set, the system named is male-pattern hair loss. The settings on record: within three months of starting treatment; also at 24 and 48 months with continued use.

Consider `CC(C)(C)NC(=O)[C@H]1CC[C@H]2[C@@H]3CC[C@H]4NC(=O)C=C[C@]4(C)[C@H]3CC[C@]12C` [finasteride], for which the “hair on the scalp” value is given as “Increased hair on the scalp”.
